Assay results published in a melting point compilation (Tetko et al.; mined from patent text by program, amines drawn as free bases though some values may be those of a salt).

Row | Structure (SMILES) | melting point
1 | Clc1cccc(Nc2n[nH]c3ncnc(NCc4ccccc4)c23)c1 | 216 to 218 °C
2 | FC(F)c1nc2ccccc2n1-c1nc(NCc2ccccn2)nc(N2CCOCC2)n1 | 192 to 193 °C
3 | O=C(Nc1ccc(OCCN2CCCC2=O)c2ccccc12)c1cc(F)cc(N2CCOCC2)c1 | 172 to 173 °C
4 | CCON=Cc1ccccc1OCc1ccccc1C(=COC)C(=O)OC | 86 to 88 °C
5 | CC(C)c1noc(-c2ncn3c2nc(N2CCOCC2)c2cc(F)ccc23)n1 | 262 to 264 °C
6 | NCCc1ccc(OCCC(c2ccc(Cl)cc2)(c2ccc(Cl)cc2)c2ccc(Cl)cc2)cc1 | 132 to 135 °C
7 | COc1cc(OC)cc(S(=O)(=O)c2ccc(N)c(C)c2)c1 | 121 to 123 °C
8 | O=C(Oc1ccc([N+](=O)[O-])cc1)c1ccc2[nH]cc(CCN3C(=O)c4ccccc4C3=O)c2c1 | 248 to 251 °C
9 | CC1(C)CN(S(=O)(=O)c2ccccc2F)c2cccc(Br)c2O1 | 108 to 110 °C
10 | C#CCOc1cc(C(=O)O)cc(N)c1C(=O)c1ccccc1 | 192 °C
11 | COC(=O)C(=O)Nc1cccc(C(=O)Nc2nnn[nH]2)c1 | 253 to 254 °C
12 | Cc1sc(C)c(Cc2nc3c(F)c(F)cc(F)c3s2)c1CC(=O)O | 170 to 171 °C
13 | COc1ccc(CNC(=O)CCC(=O)c2ccc3[nH]c4ncc(Cl)cc4c3c2)cc1 | 228 °C
14 | CC(C)c1cc(C(C)C)c2nc[nH]c(=O)c2c1 | 164 to 165 °C
15 | Oc1ccc2nc(-c3ccc(C45CC6CC(CC(C6)C4)C5)c(O)c3)[nH]c2c1 | 250 to 252 °C
16 | CON=C(C)c1c(C)oc2c(-n3c(=O)cc(C(F)(F)F)n(C)c3=O)c(F)cc(Cl)c12 | 65 to 67 °C
17 | Cc1ccc(S(=O)(=O)NC2N=C(c3ccccc3F)c3ccccc3NC2=O)cc1 (racemic) | 215 to 216 °C
18 | CCCCCCCCCCCCOC(=O)c1ccc(O)c(N)c1 | 86 to 89 °C
19 | CCC(=C(c1ccccc1)c1ccc(N(CCN(CC)CC)S(C)(=O)=O)cc1)c1ccc(OC)cc1 | 120 to 130 °C
20 | COC(=O)c1nc(-c2cnco2)cc(N)c1Cl | 166 to 170 °C
21 | OCc1ccc(OCc2ccccc2)c(F)c1 | 56 to 57 °C
22 | Cn1cc(-c2ccc(Oc3ccc(F)cc3F)cc2)nc1C(N)=O | 183 to 187 °C
23 | CN(C)C(CNc1c(C#N)cnn2cccc12)c1ccco1 (stereo unspecified) | 107 °C
24 | Cn1c(=O)c2c(ncn2CCC(O)N2CCN(C(=O)c3ccco3)CC2)n(C)c1=O (stereo unspecified) | 161 to 163 °C

Row | Structure (SMILES) | melting point
25 | CS(=O)(=O)c1ccc(C(=O)c2c(O)cc(Cl)cc2Cl)c(Cl)c1 | 123 to 126 °C
26 | CNc1nc(-c2cccc(NC(=O)c3ccccn3)c2)c2cc(OC)c(OC)cc2n1 | 175 to 177 °C
27 | CC12CCC3c4cc(O)c(OCc5ccccc5)cc4CCC3C1CCC2OCc1ccccc1 (stereo unspecified) | 117 to 118 °C
28 | CC(=O)C1CCC(CNC(=O)c2cccnc2Oc2ccc(F)cc2)CC1 (stereo unspecified) | 110 to 111 °C
29 | COc1cc(COc2nn(-c3ccccc3)cc2CC2=NCCO2)ccc1OCc1nc(-c2ccco2)oc1C | 95 to 96 °C
30 | C=C1CCc2sccc2C1=O | 47 to 49 °C
31 | CCCCCCCCCCc1ccc2ccc(OC)cc2c1 | 29.9 to 30.8 °C
32 | CCCCC(=O)c1c(CBr)nc2cc(OC)c(OC)cc2c1-c1ccc(OC)c(OC)c1 | 150 to 151 °C
33 | CC1=C(C(=O)OCCN(C)Cc2ccccc2)C(c2cccc([N+](=O)[O-])c2)c2c(N)nc(N)nc2N1 (stereo unspecified) | 162 °C
34 | Cc1cc(C(=O)N(C2CCCCC2)C2CCCC2)ccc1Br | 125 to 127 °C
35 | CC1COC(c2ccccc2)(c2ccc(N)c([N+](=O)[O-])c2)O1 (stereo unspecified) | 155 °C
36 | COC(=O)C(C)(C)c1ccc(C(=O)Nc2cn3cc(Cl)ccc3n2)cc1 | 245 to 246 °C
37 | CC(=O)Nc1ccc(C(C)=C(Cl)Cl)cc1[N+](=O)[O-] | 139 to 141 °C
38 | COC(=O)C1=CCN=C(c2ccccc2F)c2cc(Cl)ccc21 | 106 to 107 °C
39 | Cc1ccc(C(=O)c2c(-c3ccc(OCC(O)CNC(C)C)cc3)oc3ccccc23)cc1 (stereo unspecified) | 65 to 75 °C
40 | CCCCCCCCCCCCC(Oc1ccc(O)c(C(C)(C)C)c1)C(=O)OCC (stereo unspecified) | 45 to 48 °C
41 | CCOc1csc2c(O)c(SC)cnc12 | 180 to 183 °C
42 | COc1cc(C)c(C=CC(C)=CC=CC(C)=CCO)c(C)c1C | 128 to 130 °C
43 | CCOC(=O)C1(O)C=CC(N=Nc2ccccc2)=CC1 (stereo unspecified) | 153 to 154 °C
44 | CCOC(=O)c1cc2c(cn1)[nH]c1cccc(C=Nc3ccccc3)c12 | 298 to 302 °C
45 | CCOCc1ccc2oc(C(=O)OCC)c(C)c2c1O | 97 to 98 °C
46 | COc1cc(C2=CCCCC2)c(Cl)cc1C(=O)N1Cc2cccn2Cc2ccccc21 | 92 to 98 °C
47 | CCOC(=O)CC(=O)COCC1=C(C(=O)OCC)C(c2cccc(Cl)c2Cl)C(C(=O)OC)=C(C)N1 (stereo unspecified) | 99 to 102 °C
48 | COCC1CN(c2ccc(OCC3CCCC3=O)cc2)C(=O)O1 (stereo unspecified) | 70 °C

Row | Structure (SMILES) | melting point
49 | COc1ccc(S(=O)(=O)N(CC(N)=O)c2ccc(Cl)cc2Cc2cc(Cl)ccc2Cl)cc1OC | 200 °C
50 | Cc1cc(Cl)ccc1-c1cc(Cl)cc2c1NC(CN)CO2 (stereo unspecified) | 102 °C
51 | CCCC(O)c1cc(C#N)ccc1OCc1ccc(Cl)cc1Cl (stereo unspecified) | 120 to 121 °C
52 | O=C(ON=C1C(=O)c2ccccc2-c2ccccc21)c1ccccc1 | 148 to 149 °C
53 | CCCCN1C(=O)c2cnc(-c3ccccc3)nc2N(C(=O)CN2CCN(C)CC2)c2ccccc21 | 90 to 94 °C
54 | CC(C)NC(=O)c1ccccc1 | 101 to 103 °C
55 | CCOC(=O)C(=O)Nc1coc2ccc(Cl)cc2c1=O | 161 to 162 °C
56 | CC(C)(C)OC(=O)N1CCC(c2ccc3oc(-c4ccc(S(C)(=O)=O)cc4F)nc3c2)CC1 | 168 to 171 °C
57 | Cc1c(C(=O)Nc2ccc(OCCN3CCOCC3)c(C#N)c2)cnn1-c1ccc(Cl)cc1 | 187 to 189 °C
58 | N#Cc1c(CBr)c(C#N)c(CBr)c(C#N)c1CBr | 120 °C
59 | CCCCCc1nc2ccccc2[nH]1 | 161 to 162 °C
60 | O=C(Oc1cccc(OC(=O)c2cc(O)c(O)c(O)c2)c1)c1cc(O)c(O)c(O)c1 | 194 to 195 °C
61 | Nc1nc2cc(Br)ccc2c2c1nc(CNC(=O)C1CC1)n2CC1CCOCC1 | 240 °C
62 | CCOc1ccc(C2=NN(C3CCCCC3)C(=O)[C@H]3CC=CC[C@@H]23)cc1OCC (relative stereo) | 147 to 148 °C
63 | O=c1[nH]c2ccccc2n1CCN1CCCCC1 | 123 to 125 °C
64 | Cc1nc2c(OCc3c(Cl)ccc(N(C)C=O)c3Cl)cccn2c1Br | 207 to 209 °C
65 | COc1cc(C(C)=O)ccc1OCCCN1CCC(C(O)(c2ccc(F)c(F)c2)c2ccc(F)c(F)c2)CC1 | 143 to 146 °C
66 | CC(C)n1nc(C(=O)O)c2ccccc21 | 160 to 163 °C
67 | CCC1C(=O)Nc2cccc3c2N1C(=O)C3c1ccccc1 (stereo unspecified) | 205 to 208 °C
68 | O=C(O)c1cc(O)c(C(=O)c2ccc(Cl)cc2)c([N+](=O)[O-])c1 | 266 to 268 °C
69 | O=C1COc2cc(F)c(N3C(=O)C4=C(CCCC4)C3=O)cc2N1Cc1ccccn1 | 188 to 190 °C
70 | CC(C)C1Nc2ccc(S(=O)(=O)N3CCCCC3)cc2S(=O)(=O)N1 (stereo unspecified) | 237 to 239 °C
71 | O=C1CCCc2cc(Sc3cccc(F)c3)ccc21 | 66.2 to 66.7 °C
72 | CCC(CC)CNC(=O)c1cccc(CN2C(=O)C3(COc4cc5c(cc43)CCO5)c3ccccc32)c1 (stereo unspecified) | 105 to 106 °C

Row | Structure (SMILES) | melting point
73 | CN(C(=O)OC(C)(C)C)c1cc(Oc2ccc(Oc3ccccc3)cc2)ccc1N | 105 to 106 °C
74 | CC1CC2=CC(=O)CCC2C2C(F)CC3(C)C(OCc4ccc(S(N)(=O)=O)cc4)CCC3C12 (stereo unspecified) | 232 °C
75 | CS(=O)(=O)Nc1ccc(C=CC(=O)O)cc1 | 218 °C
76 | CC(C)(C)c1cc(C=C2SCN(CC#N)C2=O)cc(C(C)(C)C)c1O | 186 to 188 °C
77 | CC(C)OC(=O)c1cc(-n2nc3ccc(Cl)cn3c2=O)c(F)cc1Cl | 120 to 123 °C
78 | CC1CN(c2c(F)cc3c(=O)c(C(=O)O)cn(C)c3c2C(F)(F)F)CCN1c1ncccn1 (stereo unspecified) | 283 to 284 °C
79 | CCCCc1nc2c(N)nc3cccnc3c2n1CCCC(C)=NOC | 132 to 134 °C
80 | CC(=O)Oc1cc(-c2nc3ccccc3[nH]c2=O)cc([N+](=O)[O-])c1OC(C)=O | 241 to 243 °C
81 | COc1cc(CN(C)c2ncc(C(=O)NO)cn2)cc(C(=O)Nc2ccc(Cl)c(-c3nc4cc(N(C)C)ccc4[nH]3)c2)c1 | 207 to 208 °C
82 | CCCCNC(=O)Nc1cccc2c1C(=O)c1c-2n[nH]c1-c1ccc(OC)cc1 | 252 °C
83 | NC(=O)c1cccc(-c2ccc(Cl)c3cc(Cc4ccc(F)c(F)c4)sc23)c1 | 185 to 186 °C
84 | Cc1nc(-n2ccc(N)cc2=O)sc1C(=O)NCc1ccccc1 | 171 to 172 °C
85 | CC(C)(C)[Si](C)(C)Oc1ccc2c(c1)Oc1ccccc1C2=C1C2CC3CC(C2)CC1C3 | 137 °C
86 | Cc1ccc(N)cc1S(=O)(=O)Nc1onc(C)c1C | 204 to 205 °C
87 | CS(=O)CC(=O)Nc1c(C(=O)c2ccccc2)[nH]c2cc(Cl)ccc12 (stereo unspecified) | 191 to 192 °C
88 | CCN(CC)C/C=C/c1ccc2c(Nc3ccc(Sc4nccn4C)c(Cl)c3)c(C#N)cnc2c1 | 223 to 228 °C
89 | CCC(CO)c1ccc(N=C2SCCS2)cc1 (stereo unspecified) | 98.5 to 100 °C
90 | N#CNC(=NC1CCCC1)Nc1cccc(C(F)(F)F)c1 | 112 to 113 °C
91 | CC(C)(C)OC(=O)Nc1ccc(C(=O)O)cc1C(F)(F)F | 197 to 198 °C
92 | CC(C)(C)c1ccc(-c2ccc(F)cc2)n1CC[C@H]1C[C@H](O)CC(=O)O1 (relative stereo) | 177 to 178 °C
93 | Cc1ncsc1C(C)(O)c1ccsc1 (stereo unspecified) | 149 to 151 °C
94 | Cc1cc(C2=NOC(c3cc(Cl)cc(Cl)c3)(C(F)(F)F)C2)ccc1C(=O)Nc1ncc(C#N)cn1 (stereo unspecified) | 118 to 121 °C
95 | COc1ccc(Cl)cc1-c1nnn(-c2ccc(C(F)(F)F)cc2Cl)c1N | 153 °C
96 | CC(C(=O)O)c1ccc2oc(Nc3ccc(Cl)cc3)nc2c1 (stereo unspecified) | 206 to 208 °C
